Measured values published in patent US8222270B2 (Medicis Pharmaceutical Corporation, priority 2008, dated 2012).

Legend:
[1] = Stability of calibration standards in spent receiver fluid; format: physicochemical; conditions: vs T = 0
[2] = 52-week dermal photoco-carcinogenicity study; format: in vivo, hairless mice; conditions: 3×/week, 40 weeks, concurrent UV radiation
From the text: In a 52-week dermal photoco-carcinogenicity study, the median time to onset of skin tumor formation was decreased in hairless mice following chronic topical dosing (3×/week; 40 weeks of treatment followed by 12 weeks of observation) with concurrent exposure to UV radiation (5 days per week) with vehicle alone.
Vehicle cream enhanced UVR-induced skin tumour development.

[3] = Physicochemical properties of the drug substance (solubility, pKa)
Protocol: Physicochemical Properties: • Physical Form: Crystalline solid that varies in colour from white to off-white or buff. […] It can be made soluble to the extent of at least 100 mg/mL in methanol (as a salt) upon the addition of a few drops of hydrochloric or acetic acid.

[4] = system: interleukin-1 antagonist, interferon-α, 2′5′-oligoadenylate synthetase; assay: Biomarker response in 58 patients with AK treated 3 times per week for 16 weeks; format: in vivo, human; conditions: 16 weeks of dosing
[5] = system: human monocytes/macrophages and keratinocytes; assay: In vitro cytokine induction; format: cell-based
From the text: The panel of cytokines induced varied with the cell's tissue origin.

With `CC(C)Cn1cnc2c(N)nc3ccccc3c21` [imiquimod, 1-(2-methylpropyl)-1H-imidazo[4,5-c]quinolin-4-amine] the “48 h % recovered in Spent receiver fluid” value ([1]; Standard 52.75 μg/ml, Epidermal sheet + placebo, 37° C.) was 86.906%, the “48 h % recovered in Spent receiver fluid” value ([1]; Standard 52.75 μg/ml, Epidermal sheet + placebo, Fridge) was 85.635% and the “48 h % recovered in Spent receiver fluid” value ([1]; Standard 52.75 μg/ml, Epidermal sheet + placebo, RT) was 88.169%. The “48 h % recovered in Spent receiver fluid” value ([1]; Standard 52.75 μg/ml, Epidermal sheet, 37° C.) was 90.943%, the “48 h % recovered in Spent receiver fluid” value ([1]; Standard 52.75 μg/ml, Epidermal sheet, Fridge) was 87.669% and the “48 h % recovered in Spent receiver fluid” value ([1]; Standard 52.75 μg/ml, Epidermal sheet, RT) was 89.096%. For the same molecule, the “48 h % recovered in Spent receiver fluid” value ([1]; Standard 52.75 μg/ml, Full thickness + placebo, 37° C.) was 93.779%, the “48 h % recovered in Spent receiver fluid” value ([1]; Standard 52.75 μg/ml, Full thickness + placebo, Fridge) was 91.776% and the “48 h % recovered in Spent receiver fluid” value ([1]; Standard 52.75 μg/ml, Full thickness + placebo, RT) was 92.027%. For the same molecule, the “48 h % recovered in Spent receiver fluid” value ([1]; Standard 52.75 μg/ml, Full thickness, 37° C.) was 95.282%, the “48 h % recovered in Spent receiver fluid” value ([1]; Standard 52.75 μg/ml, Full thickness, Fridge) was 92.317% and the “48 h % recovered in Spent receiver fluid” value ([1]; Standard 52.75 μg/ml, Full thickness, RT) was 92.152%. The “48 h % recovered in Spent receiver fluid” value ([1]; Standard 84.4 μg/ml, Epidermal sheet + placebo, 37° C.) was 98.178%, the “48 h % recovered in Spent receiver fluid” value ([1]; Standard 84.4 μg/ml, Epidermal sheet + placebo, Fridge) was 95.620% and the “48 h % recovered in Spent receiver fluid” value ([1]; Standard 84.4 μg/ml, Epidermal sheet + placebo, RT) was 96.033%. For the same molecule, the “48 h % recovered in Spent receiver fluid” value ([1]; Standard 84.4 μg/ml, Epidermal sheet, 37° C.) was 82.694%, the “48 h % recovered in Spent receiver fluid” value ([1]; Standard 84.4 μg/ml, Epidermal sheet, Fridge) was 81.350% and the “48 h % recovered in Spent receiver fluid” value ([1]; Standard 84.4 μg/ml, Epidermal sheet, RT) was 82.276%. The “48 h % recovered in Spent receiver fluid” value ([1]; Standard 84.4 μg/ml, Full thickness + placebo, 37° C.) was 85.629%, the “48 h % recovered in Spent receiver fluid” value ([1]; Standard 84.4 μg/ml, Full thickness + placebo, Fridge) was 84.561% and the “48 h % recovered in Spent receiver fluid” value ([1]; Standard 84.4 μg/ml, Full thickness + placebo, RT) was 84.421%. The “48 h % recovered in Spent receiver fluid” value ([1]; Standard 84.4 μg/ml, Full thickness, 37° C.) was 101.010%, the “48 h % recovered in Spent receiver fluid” value ([1]; Standard 84.4 μg/ml, Full thickness, Fridge) was 98.841% and the “48 h % recovered in Spent receiver fluid” value ([1]; Standard 84.4 μg/ml, Full thickness, RT) was 99.790%. The “48 h % recovered in Spent receiver fluid” value ([1]; Standard 105.5 μg/ml, Epidermal sheet + placebo, 37° C.) was 84.903%, the “48 h % recovered in Spent receiver fluid” value ([1]; Standard 105.5 μg/ml, Epidermal sheet + placebo, Fridge) was 83.833% and the “48 h % recovered in Spent receiver fluid” value ([1]; Standard 105.5 μg/ml, Epidermal sheet + placebo, RT) was 84.515%. For the same molecule, the “48 h % recovered in Spent receiver fluid” value ([1]; Standard 105.5 μg/ml, Epidermal sheet, 37° C.) was 91.501%, the “48 h % recovered in Spent receiver fluid” value ([1]; Standard 105.5 μg/ml, Epidermal sheet, Fridge) was 90.465% and the “48 h % recovered in Spent receiver fluid” value ([1]; Standard 105.5 μg/ml, Epidermal sheet, RT) was 92.089%. The “48 h % recovered in Spent receiver fluid” value ([1]; Standard 105.5 μg/ml, Full thickness + placebo, 37° C.) was 91.704%, the “48 h % recovered in Spent receiver fluid” value ([1]; Standard 105.5 μg/ml, Full thickness + placebo, Fridge) was 88.242% and the “48 h % recovered in Spent receiver fluid” value ([1]; Standard 105.5 μg/ml, Full thickness + placebo, RT) was 88.546%. The “48 h % recovered in Spent receiver fluid” value ([1]; Standard 105.5 μg/ml, Full thickness, 37° C.) was 92.278%, the “48 h % recovered in Spent receiver fluid” value ([1]; Standard 105.5 μg/ml, Full thickness, Fridge) was 90.545% and the “48 h % recovered in Spent receiver fluid” value ([1]; Standard 105.5 μg/ml, Full thickness, RT) was 92.275%. The “48 h % recovered in Spent receiver fluid” value ([1]; Standard […] μg/ml, Epidermal sheet + placebo, 37° C.) was 89.945%, the “48 h % recovered in Spent receiver fluid” value ([1]; Standard […] μg/ml, Epidermal sheet + placebo, Fridge) was 84.046% and the “48 h % recovered in Spent receiver fluid” value ([1]; Standard […] μg/ml, Epidermal sheet + placebo, RT) was 85.095%. For the same molecule, the “48 h % recovered in Spent receiver fluid” value ([1]; Standard […] μg/ml, Epidermal sheet, 37° C.) was 97.099%, the “48 h % recovered in Spent receiver fluid” value ([1]; Standard […] μg/ml, Epidermal sheet, Fridge) was 93.180% and the “48 h % recovered in Spent receiver fluid” value ([1]; Standard […] μg/ml, Epidermal sheet, RT) was 94.971%. For the same molecule, the “48 h % recovered in Spent receiver fluid” value ([1]; Standard […] μg/ml, Full thickness + placebo, 37° C.) was 90.798%, the “48 h % recovered in Spent receiver fluid” value ([1]; Standard […] μg/ml, Full thickness + placebo, Fridge) was 88.307% and the “48 h % recovered in Spent receiver fluid” value ([1]; Standard […] μg/ml, Full thickness + placebo, RT) was 86.897%. The “48 h % recovered in Spent receiver fluid” value ([1]; Standard […] μg/ml, Full thickness, 37° C.) was 97.826%, the “48 h % recovered in Spent receiver fluid” value ([1]; Standard […] μg/ml, Full thickness, Fridge) was 94.989% and the “48 h % recovered in Spent receiver fluid” value ([1]; Standard […] μg/ml, Full thickness, RT) was 93.522%. For the same molecule, the “Effect on tumor development beyond the vehicle effect” value [2] was “No additional effect on tumor development beyond the vehicle effect”, the “Solubility in fatty acids such as oleic acid and isostearic acid” value [3] was “Soluble” and the pKa ([3]; UV spectroscopy and pH-solubility) was roughly 7.5. The “Solubility in most common organic solvents and in aqueous systems” value ([3]; except at extremely low pH) was “Practically insoluble”, the solubility ([3]; methanol, upon addition of a few drops of hydrochloric or acetic acid, read-out: Solubility in methanol (as a salt)) was no less than 100 mg/mL and the “2′5′-oligoadenylate synthetase, median concentration after multiple dosing vs single dose” value [4] was “approximately 3 fold”. For the same molecule, the “Interferon-α, median concentration after multiple dosing vs single dose” value [4] was no more than 3 fold, the “Interleukin-1 antagonist, median concentration after multiple dosing vs single dose” value [4] was less than 2 fold and the “Release of interferon alpha (IFN-α) and other cytokines” value [5] was “induces the release”.
